Measured values taken from ChEMBL document CHEMBL5614402, “Discovery of novel pyrazolo[1,5-a]pyrimidine derivatives as potent reversal agents against ABCB1-mediated multidrug resistance” (Eur J Med Chem, 2024).

Experiments:
NCI/ADR-RES [1] = assay: Reversal of paclitaxel resistance in human MCF7ADR cells assessed as reversal fold by measuring ratio of paclitaxel IC50 to paclitaxel IC50 in presence of test compound at 5 uM incubated for 72 hrs by MTT assay; assay type: functional
NCI/ADR-RES [2] = assay: Reversal of paclitaxel resistance in human MCF7ADR cells assessed as reduction in paclitaxel IC50 at 5 uM pretreated with compound for 4 hrs followed by paclitaxel addition and measured after 72 hrs by MTT assay (reference value: 6.68 +/- 0.35 microM); assay type: functional, cell-based
MCF7 [3] = assay: Antiproliferative activity against human MCF7 cells assessed as survival rate at 5 uM incubated for 72 hrs by MTT assay; assay type: functional; details: read-out: Survival
NCI/ADR-RES [4] = assay: Antiproliferative activity against human MCF7ADR cells incubated for 72 hrs by MTT assay; assay type: functional, cell-based
MCF7 [5] = assay: Antiproliferative activity against human MCF7 cells incubated for 72 hrs by MTT assay; assay type: functional, cell-based; details: MCF7, 72 h
NCI/ADR-RES [6] = assay: Antiproliferative activity against human MCF7ADR cells assessed as survival rate at 5 uM incubated for 72 hrs by MTT assay; assay type: functional; details: read-out: Survival

Row | SMILES | Ratio (NCI/ADR-RES [1]) | IC50 (NCI/ADR-RES [2]) | viability at 5 µM (MCF7 [3]) | IC50 (NCI/ADR-RES [4]) | IC50 (MCF7 [5]) | viability at 5 µM (NCI/ADR-RES [6])
1 | COc1ccc(-c2c(C)nc3cc(C)nn3c2-c2cc(OC)c(OC)c(OC)c2)cc1 | 8.14 | 0.82 µM | > 99% | > 20 µM | > 20 µM | 95.2%
2 | COc1cc(-c2c(-c3ccc(Br)cc3)c(C)nc3cc(-c4cccs4)nn23)cc(OC)c1OC | 139.16 | 0.048 µM | 94.8% | > 20 µM | 14.4 µM | 94.2%
3 | COc1cc(-c2c(C)nc3cc(C)nn3c2-c2cc(OC)c(OC)c(OC)c2)cc(OC)c1OC | 14.52 | 0.46 µM | 94.4% | > 20 µM | > 20 µM | 96.6%
4 | COc1ccc(-c2c(C)nc3cc(-c4ccco4)nn3c2-c2cc(OC)c(OC)c(OC)c2)cc1 | 66.8 | 0.1 µM | 90.8% | > 20 µM | 9.53 µM | 93.1%
5 | COc1cc(-c2c(C)nc3cc(C4CC4)nn3c2-c2cc(OC)c(OC)c(OC)c2)cc(OC)c1OC | 66.8 | 0.1 µM | 95.6% | > 20 µM | > 20 µM | 90.5%
6 | COc1ccc(-c2c(C)nc3cc(-c4ccccc4)nn3c2-c2cc(OC)c(OC)c(OC)c2)cc1 | 151.81 | 0.048 µM | 90.2% | > 20 µM | 7.94 µM | 89.2%
7 | CCc1cc2nc(C)c(-c3ccc(OC)cc3)c(-c3cc(OC)c(OC)c(OC)c3)n2n1 | 27.83 | 0.24 µM | > 99% | > 20 µM | > 20 µM | > 99%
8 | COc1ccc(-c2c(C)nc3ccnn3c2-c2cc(OC)c(OC)c(OC)c2)cc1 | 2.14 | 3.12 µM | > 99% | > 20 µM | > 20 µM | > 99%
9 | COc1cc(-c2c(-c3ccc(F)cc3)c(C)nc3cc(-c4ccco4)nn23)cc(OC)c1OC | 37.11 | 0.18 µM | 91.6% | > 20 µM | > 20 µM | 93.8%
10 | COc1ccc(-c2c(C)nc3cc(C4CC4)nn3c2-c2cc(OC)c(OC)c(OC)c2)cc1 | 51.28 | 0.12 µM | > 99% | > 20 µM | > 20 µM | 95.1%
11 | COc1ccc(-c2c(C)nc3cc(-c4ccccc4)nn3c2-c2cc(OC)c(OC)c(OC)c2)cc1OC | 139.16 | 0.048 µM | 92.7% | > 20 µM | > 20 µM | 89.2%
12 | COc1cc(-c2c(-c3ccc(Cl)cc3)c(C)nc3cc(-c4ccco4)nn23)cc(OC)c1OC | 1.55 | 4.3 µM | 95.8% | > 20 µM | > 20 µM | 94.7%
13 | COc1cc(-c2c(C)nc3cc(-c4ccccc4)nn3c2-c2cc(OC)c(OC)c(OC)c2)cc(OC)c1OC | 222.66 | 0.03 µM | 96.2% | > 20 µM | > 20 µM | 93.5%
14 | COc1cc(-c2c(-c3ccc(Cl)cc3)c(C)nc3cc(-c4cccs4)nn23)cc(OC)c1OC | 81.46 | 0.082 µM | 98.2% | > 20 µM | > 20 µM | 94.2%
15 | COc1cc(-c2c(C)nc3cc(-c4ccco4)nn3c2-c2cc(OC)c(OC)c(OC)c2)cc(OC)c1OC | 151.81 | 0.044 µM | 95.1% | > 20 µM | > 20 µM | 89.9%
16 | COc1cc(-c2c(C)nc3ccnn3c2-c2cc(OC)c(OC)c(OC)c2)cc(OC)c1OC | 3.15 | 2.12 µM | > 99% | > 20 µM | > 20 µM | > 99%
17 | COc1ccc(-c2c(C)nc3cc(-c4cccs4)nn3c2-c2cc(OC)c(OC)c(OC)c2)cc1 | 136.32 | 0.049 µM | 93.6% | > 20 µM | > 20 µM | 85.1%
18 | COc1cc(-c2c(-c3ccc(F)cc3)c(C)nc3cc(-c4cccs4)nn23)cc(OC)c1OC | 55.67 | 0.12 µM | 95.6% | > 20 µM | > 20 µM | 90.7%
19 | COc1ccc(-c2c(C)nc3ccnn3c2-c2cc(OC)c(OC)c(OC)c2)cc1OC | 2.84 | 2.35 µM | > 99% | > 20 µM | > 20 µM | > 99%
20 | COc1ccc(-c2c(C)nc3cc(-c4ccco4)nn3c2-c2cc(OC)c(OC)c(OC)c2)cc1OC | 76.78 | 0.087 µM | 92.4% | > 20 µM | > 20 µM | 97.1%
21 | COc1cc(-c2c(-c3ccc(Cl)cc3)c(C)nc3cc(-c4ccccc4)nn23)cc(OC)c1OC | 90.27 | 0.074 µM | 94.2% | > 20 µM | > 20 µM | 90.3%
22 | COc1cc(-c2c(-c3ccc(Br)cc3)c(C)nc3cc(-c4ccco4)nn23)cc(OC)c1OC | 1.14 | 5.86 µM | 94.5% | > 20 µM | > 20 µM | 93.6%
23 | COc1ccc(-c2c(C)nc3cc(-c4cccs4)nn3c2-c2cc(OC)c(OC)c(OC)c2)cc1OC | 215.48 | 0.031 µM | 94.1% | > 20 µM | > 20 µM | 94.6%
24 | COc1ccc(-c2c(C)nc3cc(C#N)nn3c2-c2cc(OC)c(OC)c(OC)c2)cc1 | 10.77 | 0.62 µM | 93.9% | > 20 µM | > 20 µM | 90.6%
25 | COc1ccc(-c2c(C)nc3cc(Br)nn3c2-c2cc(OC)c(OC)c(OC)c2)cc1 | 4.77 | 1.4 µM | 95.4% | > 20 µM | > 20 µM | 91.2%
26 | COc1cc(-c2c(-c3ccc(Br)cc3)c(C)nc3cc(-c4ccccc4)nn23)cc(OC)c1OC | 126.03 | 0.053 µM | 95.2% | > 20 µM | > 20 µM | 95.1%
